Measurements as given in patent US20070258893A1, “Compositions and methods for imaging expression of cell surface receptors” (priority 2003, published 2007).
Entries after “also recorded” stand apart in the source; their conditions may differ. Positions of bridges follow the written chain, without caps; N, C: chain ends. Non-standard residues stand in square brackets, D forms with d. Residues, ends and D or L forms follow the SMILES beside them. No end group written: not given here. 2Nal = N[C@@H](Cc1ccc2ccccc2c1)C(=O)O; Cit = NC(=O)NCCC[C@H](N)C(=O)O

Assays:
CXCR4/SDF-1 = assay: LANCE cAMP assay (TR-FRET), SDF-1-induced cAMP reduction; type: cell-based; conditions: SDF-1 0-100 ng/ml
Description: (§1) A salt form of 6-18-10, WZ811S, was tested in a matrigel invasion assay to measure its ability to inhibit CXCR4/SDF-mediated invasion. […] Thus, Perkin-Elmer's LANCE cAMP assay kit (Cat # AD0262) that was based on time-resolved fluorescence resonance energy transfer (TR-FRET) was tested. […] The results were measured in Perkin-Elmer's Envision multi-label microplate reader (384-wells) with conditions of flash energy area=low, flash energy level=239, counting cycle=1 ms, and ex/em=340 nm/665 nm.

[1] = target: T1, CXCR4 receptor on tumor cells (Homo sapiens, UniProt P61073); assay: Immunofluorescence competition with biotin-labeled CXCR4 antagonist and streptavidin-conjugated rhodamine; type: binding; conditions: labeled via HYNIC and [19F]-FBA
T1 construct: endogenous in cells; probably MDA-MB-231 as in the drug screen
T1 sequence (P61073 whole entry): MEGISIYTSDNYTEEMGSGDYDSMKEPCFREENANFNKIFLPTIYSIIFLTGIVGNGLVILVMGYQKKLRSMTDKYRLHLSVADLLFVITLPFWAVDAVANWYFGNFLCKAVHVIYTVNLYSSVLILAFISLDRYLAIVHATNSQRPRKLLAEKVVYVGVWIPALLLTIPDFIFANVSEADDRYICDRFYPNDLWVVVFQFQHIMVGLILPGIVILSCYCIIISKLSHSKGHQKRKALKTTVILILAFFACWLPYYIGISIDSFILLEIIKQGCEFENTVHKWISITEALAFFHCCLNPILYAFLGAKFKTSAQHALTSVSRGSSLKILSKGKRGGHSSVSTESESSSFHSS
Excerpt: FIG. 11A illustrates sub-fractions of a mixture of TN14003-HYNIC and FBA. After the conjugation steps, the mixture was fractionated with increasing acetonitrile concentration in a mobile phase. Mass spectroscopy data confirmed that fraction 6 contained TN14003-HYNIC, while the fraction […] contained 19F-labeled TN14003 (final product). Fractions 6 and 9 are indicated by arrows on the graph.
Using biotin-labeled CXCR4 antagonist along with streptavidin-conjugated rhodamine, the binding efficiency of the fluorine 19-labeled CXCR4 antagonist to CXCR4 receptor on tumor cells was determined and compared to that of the unlabeled CXCR4 antagonist in immunofluorescence as was done for drug screening, described above. Cells incubated with only streptavidin-conjugated rhodamine (negative control) were compared to cells incubated with both the biotin-labeled CXCR4 antagonist and streptavidin-conjugated rhodamine (positive control). When equal amounts of unlabeled CXCR4 antagonist were added into the biotin-labeled antagonist mixture, the red fluorescence decreased due to the competition between biotin-labeled antagonist and unlabeled antagonist. The same amount of red fluorescence decrease was seen when fluorine 19-labeled antagonist was added to the biotin-labeled antagonist mixture (FIG. 11B). […]

[2] = system: CXCR4/SDF-1 mediated invasion of MDA-MB-231; assay: Matrigel invasion assay with SDF-1 as chemoattractant; type: cell-based; conditions: 100 nM
Description: Invasive cells penetrate matrigel and end up on the other side of the matrigel.
as §1

HUVECs = assay: SDF-1 induced endothelial tubular formation; type: cell-based; conditions: SDF-1 for 18 hours, pretreatment, P<0.001
[3] = in vivo; cited from earlier work
CXCR4 [4] = target: T2, CXCR4 (Homo sapiens, UniProt P61073); conditions: cited from earlier work
T2 sequence (P61073 whole entry): as above

CXCR4 [5] = target: T2, CXCR4; assay: Competitive binding assay against biotin-labeled TN14003 on MDA-MB-231 cells (immunofluorescence); set-up: endogenous in cells; host or cells: MDA-MB-231; conditions: cells pre-incubated with compound
Description: FIG. 4A illustrates the structure of TN14003-Biotin. […] 20,000 cells of MDA-MB-231 were seeded in 8-well slide chamber two days before experiments. Various concentration of the selected compounds (10,100, and 1000 nM) were added to the separate wells, incubated for 10 minutes at room temperature, and the cells were fixed in 4% of ice-cold paraformaldelyde. The slides were subsequently incubated with 50 ng/ml of biotin-TN14003 and streptavidin-Rhomdamine, followed by sytox blue. CXCR4—Red, nuclei-blue (sytox blue)
Screening of Small Molecule CXCR4 Antagonists With a Competitive Binding Assay Against Biotin-Labeled TN14003: T140 analogs, including TN14003, bind to the ligand binding site on CXCR4, blocking the CXCR4/SDF-1 interaction, and intervening in the progression of cancer metastasis. The discovery and development of effective, orally available small molecules also remains a major focus for many medicinal chemistry programs. […] Currently, the metal-chelating cyclams and bicyclams represent the sole class of non-peptide molecules that are known to block CXCR4. […] Trent, et al. Lipid Bilayer Simulations of XCXR4 with Inverse Agonists and Weal Partial Agonists. J. Biol. Chem. 2003 Nov. 21; 278(47):47136-44. […] This information was used to create a library of compounds with multiple, basic nitrogens throughout the molecular framework that are structurally different from AMD3100. […]

HIV = conditions: cited from earlier work; for SI=CC50/EC50: MT4 cells; for EC50: read-out: concentration required for 50% protection of HIV-induced cytopathogenicity in MT4 cells (EC50)
MT4 cells = conditions: cited from earlier work
[6] = system: CXCR4-mediated cancer metastasis; assay: CXCR4-mediated cancer metastasis in vivo; conditions: TN14003 three times weekly injection; WZ811S more frequent injection schedule
metastatic 686LN cells [7] = assay: Experimental head and neck cancer metastasis model (tail vein injection), FDG-PET imaging; type: in vivo; conditions: metastatic 686LN cells intravenously, nude mice
metastatic 686LN cells [8] = assay: Orthotopic SCCHN xenograft model (BLI, CD31 immunostaining, H&E of lungs); type: in vivo, nude mice
Excerpt: FIG. 2 illustrates that CXCR4 antagonists block tumor malignancy in head and neck cancer. […] Subclones of squamous cell carcinoma of the head and neck (SCCHN) cell line 686LN were generated by passing these cells through several serial metastases in the SCCHN orthotopic animal model. The sub-populations of 686LN cells included one group with elevated metastatic activity and another group with non-metastatic parental cells. […] FIG. 2C is a scanned image of bioluminescence imaging of orthotopic xenografts of head and neck cancer treated with TN 14003. Metastatic 686LN cells (5×10^5) were injected into the neck area of nude mice, and they were divided into two groups, one with TN14003 treatment and the other with control peptide injection. 1 mg/kg of TN14003 was injected three times weekly i.p. TN14003 treatment started after tumors were established (day 8). Primary tumors were immunostained by using anti-CD31 antibody, and the microvessel density was calculated by averaging CD31-positive microvessels of primary tumors from each group (n=4) as illustrated in the bar graph of FIG. 2D. FIG. 2E is a scanned image of representative H & E stainings (original magnification, ×10) from two mice from each group.
The anti-tumor efficacy of the CXCR4 antagonist as also tested in an orthotopic SCCHN animal model. The metastatic cells were stably transfected with the luciferase gene (pGL2-control from Promega) for in vivo tracking purposes. These cells (500,000 cells) were injected into the submandibular subcutaneous tissue to the mylohyoid muscle of the nude mice to create an orthotopic SCCHN xenograft, and the tumor growth was followed using non-invasive Bioluminescence Imaging (BLI). […] The intraperitoneal treatment of TN14003 started 7 days after the tumor injection and lasted for 23 days compared to that of the control peptide. […]

[9] = Excerpt: Additionally, a synthetic 14-mer peptide blocked the CXCR4 receptor binding to its ligand SDF-1 and inhibited CXCR4/SDF-1 mediated invasion in vitro and metastasis in vivo with a higher specificity than anti-CXCR4 antibodies (R & D Systems). The anti-invasion and anti-metastasis activity of this peptide correlated well with their inhibitory activity on SDF-1α binding to CXCR4. This antagonist is proven safe by proliferation assay, animal histology, and hemopoietic progenitor cell colony formation.
[10] = system: CXCR4/SDF-1 mediated invasion of MDA-MB-231; conditions: Liang et al.; cited from earlier work

## SDF-1: stromal cell-derived factor 1, ligand of CXCR4
CXCR4/SDF-1
  EC80 of absorption increase at 665 nM: 0.03 µg/mL

## ^19F-labeled TN14003: TN14003-HYNIC conjugated with non-radioactive [19F]-fluorobenzaldehyde (RR[2Nal]CY[Cit]K[dK]PYR[Cit]CR-NH2; disulfide 4-13; also: HYNIC linker conjugated as hydrazone with [19F]-fluorobenzaldehyde, attachment site not given here)
[1]
  blocking of binding of biotin-labeled TN14003 to CXCR4 on cell surface by preincubation: completely blocked
[1]; equal amounts
  binding efficiency to CXCR4 relative to unlabeled antagonist (red fluorescence decrease): the same as that of unlabeled (original) antagonist

## c1cc(CN2CCCNCCNCCCNCC2)ccc1CN1CCCNCCNCCCNCC1 [AMD3100]
[2]
  blocking SDF-1-induced invasion: not as effective as WZ811S
HUVECs
  SDF-1 induced tubular network formation: could not
[3]
  clinical safety outcome: withdrawn due to cardiotoxicity
CXCR4 [4]
  functional character at CXCR4: weak partial agonist
CXCR4 [5]
  concentration needed to compete against biotin-labeled TN14003: 10 µM

## H-Arg-Arg—NaI—Cys-Tyr-Arg-Lys—DLys—Pro-Tyr-Arg—Cit—Cys-Arg—OH (H-RR[2Nal]CYRK[dK]PYR[Cit]CR-OH; ends and bridges not checked) [T140, reference compound]
HIV
  SI=CC50/EC50: 17,879
  EC50: 0.0033 µM
MT4 cells
  CC50: 59 µM

## N=C(N)NCCC[C@H](NC(=O)[C@@H]1CSSC[C@H](NC(=O)[C@H](Cc2ccc3ccccc3c2)NC(=O)[C@H](CCCNC(=N)N)NC(=O)[C@@H](N)CCCNC(=N)N)C(=O)N[C@@H](Cc2ccc(O)cc2)C(=O)N[C@@H](CCCNC(N)=O)C(=O)N[C@@H](CCCCN)C(=O)N[C@H](CCCCN)C(=O)N2CCC[C@H]2C(=O)N[C@@H](Cc2ccc(O)cc2)C(=O)N[C@@H](CCCNC(=N)N)C(=O)N[C@@H](CCCNC(N)=O)C(=O)N1)C(N)=O [TN14003, H-Arg-Arg—NaI—Cys-Tyr—Cit-Lys—DLys—Pro-Tyr-Arg—Cit—Cys-Arg—NH2] (H-RR[2Nal]CY[Cit]K[dK]PYR[Cit]CR-NH2; disulfide 4-13)
HUVECs
  SDF-1 induced tubular network formation: inhibited tubular network formation
[6]
  blocking of CXCR4-mediated metastasis in vivo: completely inhibited CXCR4-mediated cancer metastasis in vivo
Metastatic 686LN cells [7]
  lung metastasis (FDG-PET, confirmed by histology): prevented lung metastasis of SCCHN; also recorded: inhibited lung metastasis
Metastatic 686LN cells [8]; 1 mg/kg, i.p., pre-established tumors
  primary tumor growth (bioluminescence imaging): suppressed even the primary tumor
Metastatic 686LN cells [8]; 1 mg/kg, i.p., primary tumors
  tumor angiogenesis / microvessel density (CD31 immunostaining): significantly blocked tumor angiogenesis at the primary site
Metastatic 686LN cells [8]; orthotopic model, treated vs control group
  lung metastases (H&E): reduction in the metastases
[9]
  safety: proven safe
[10]
  blocking SDF-1-mediated invasion versus anti-CXCR4 antibody: more effectively than an anti-CXCR4 antibody
HIV
  SI=CC50/EC50: 680,000
  EC50: 0.0006 µM
MT4 cells
  CC50: 410 µM
  cytotoxicity compared to T140: far less cytotoxic
